Measured values from ChEMBL document CHEMBL3045600, “Synthesis and Fungicidal Activities of Phenoxyphenyl Alkoxyiminoacetamide Derivatives” (J Pestic Sci, 1998).

Columns and labels:
[1] = test system: Thanatephorus cucumeris; assay: Fungicidal activity against Thanatephorus cucumeris assessed as rice sheath blight disease control at 31.3 ppm foliar application for 24 hr before inoculation at 26 +- 2 measured after 5 days by preventive manner; assay type: functional
[2] = test system: Thanatephorus cucumeris; assay: Fungicidal activity against Thanatephorus cucumeris assessed as rice sheath blight disease control at 7.8 ppm foliar application for 24 hr before inoculation at 26 +- 2 measured after 5 days by preventive manner; assay type: functional
[3] = test system: Pseudoperonospora cubensis; assay: Fungicidal activity against Pseudoperonospora cubensis assessed as cucumber downy mildew disease control at 125 ppm foliar application 24 hr before inoculation on upper surface of leaf by preventive manner; assay type: functional
[4] = test system: Pseudoperonospora cubensis; assay: Fungicidal activity against Pseudoperonospora cubensis assessed as cucumber downy mildew disease control at 31.3 ppm foliar application 24 hr before inoculation on upper surface of leaf by preventive manner; assay type: functional
[5] = test system: Pseudoperonospora cubensis; assay: Fungicidal activity against Pseudoperonospora cubensis assessed as cucumber downy mildew disease control at 7.8 ppm foliar application 24 hr before inoculation on upper surface of leaf by preventive manner; assay type: functional
[6] = test system: Botrytis cinerea; assay: Fungicidal activity against Botryotinia fuckeliana assessed as cucumber gray mold disease control at 125 ppm foliar application 24 hr before inoculation at 22 +/- 2 degC measured after 3 days by preventive manner; assay type: functional
[7] = test system: Botrytis cinerea; assay: Fungicidal activity against Botryotinia fuckeliana assessed as cucumber gray mold disease control at 31.3 ppm foliar application 24 hr before inoculation at 22 +/- 2 degC measured after 3 days by preventive manner; assay type: functional
[8] = test system: Botrytis cinerea; assay: Fungicidal activity against Botryotinia fuckeliana assessed as cucumber gray mold disease control at 7.8 ppm foliar application 24 hr before inoculation at 22 +/- 2 degC measured after 3 days by preventive manner; assay type: functional
[9] = test system: Podosphaera fuliginea; assay: Fungicidal activity against Podosphaera fuliginea assessed as cucumber powdery mildew control under greenhouse at 125 ppm foliar application 24 hr before inoculation on upper surface of leaf at 23 +/- 2 degC by preventive manner; assay type: functional
[10] = test system: Cladosporium herbarum; assay: Fungicidal activity against Cladosporium herbarum assessed as inhibition of mycelial growth by agar dilution method; assay type: functional, organism-based
[11] = test system: Pyricularia oryzae; assay: Fungicidal activity against Magnaporthe oryzae assessed as inhibition of mycelial growth by agar dilution method; assay type: functional, organism-based
[12] = test system: Colletotrichum lagenaria; assay: Fungicidal activity against Colletotrichum lagenaria assessed as inhibition of mycelial growth by agar dilution method; assay type: functional, organism-based
[13] = test system: Fusarium oxysporum; assay: Fungicidal activity against Fusarium oxysporum assessed as inhibition of mycelial growth by agar dilution method; assay type: functional, organism-based
[14] = test system: Alternaria alternata; assay: Fungicidal activity against Alternaria alternata apple pathotype assessed as inhibition of mycelial growth by agar dilution method; assay type: functional, organism-based
[15] = test system: Botrytis cinerea; assay: Fungicidal activity against Botryotinia fuckeliana assessed as inhibition of mycelial growth by agar dilution method; assay type: functional, organism-based
[16] = test system: Athelia rolfsii; assay: Fungicidal activity against Athelia rolfsii assessed as inhibition of mycelial growth by agar dilution method; assay type: functional, organism-based, Agroathelia rolfsii
[17] = test system: Podosphaera fuliginea; assay: Fungicidal activity against Podosphaera fuliginea assessed as cucumber powdery mildew control under greenhouse at 31.3 ppm foliar application 24 hr before inoculation on upper surface of leaf at 23 +/- 2 degC by preventive manner; assay type: functional
[18] = test system: Podosphaera fuliginea; assay: Fungicidal activity against Podosphaera fuliginea assessed as cucumber powdery mildew control under greenhouse at 7.8 ppm foliar application 24 hr before inoculation on upper surface of leaf at 23 +/- 2 degC by preventive manner; assay type: functional
[19] = test system: Thanatephorus cucumeris; assay: Fungicidal activity against Thanatephorus cucumeris assessed as rice sheath blight disease control at 125 ppm foliar application for 24 hr before inoculation at 26 +- 2 measured after 5 days by preventive manner; assay type: functional
[20] = test system: Colletotrichum gloeosporioides; assay: Fungicidal activity against Glomerella cingulata assessed as inhibition of mycelial growth by agar dilution method; assay type: functional, organism-based
[21] = test system: Sclerotinia sclerotiorum; assay: Fungicidal activity against Sclerotinia sclerotiorum assessed as inhibition of mycelial growth by agar dilution method; assay type: functional, organism-based
[22] = test system: Pythium aphanidermatum; assay: Fungicidal activity against Pythium aphanidermatum assessed as inhibition of mycelial growth by agar dilution method; assay type: functional, organism-based
[23] = test system: Podosphaera fuliginea; assay: Fungicidal activity against Podosphaera fuliginea assessed as cucumber powdery mildew control under greenhouse at 7.8 ppm foliar application 24 hr after inoculation on upper surface of leaf at 23 +/- 2 degC by curative manner; assay type: functional
[24] = test system: Podosphaera fuliginea; assay: Fungicidal activity against Podosphaera fuliginea assessed as cucumber powdery mildew control under greenhouse at 2 ppm foliar application 24 hr after inoculation on upper surface of leaf at 23 +/- 2 degC by curative manner; assay type: functional
[25] = test system: Pyricularia oryzae; assay: Fungicidal activity against Magnaporthe oryzae assessed as rice blast disease control at 10 ppm submerged application measured after 7 days; assay type: functional
[26] = test system: Pyricularia oryzae; assay: Fungicidal activity against Magnaporthe oryzae assessed as rice blast disease control at 2.5 ppm submerged application measured after 7 days; assay type: functional
[27] = test system: Pyricularia oryzae; assay: Fungicidal activity against Magnaporthe oryzae assessed as rice blast disease control at 0.63 ppm submerged application measured after 7 days; assay type: functional
[28] = test system: Pyricularia oryzae; assay: Fungicidal activity against Magnaporthe oryzae assessed as rice blast disease control at 0.16 ppm submerged application measured after 7 days; assay type: functional
[29] = test system: Botrytis cinerea; assay: Fungicidal activity against Botryotinia fuckeliana assessed as cucumber gray mold disease control at 31.3 ppm foliar application 24 hr after inoculation at 22 +/- 2 degC measured after 3 days by curative manner; assay type: functional
[30] = test system: Botrytis cinerea; assay: Fungicidal activity against Botryotinia fuckeliana assessed as cucumber gray mold disease control at 7.8 ppm foliar application 24 hr after inoculation at 22 +/- 2 degC measured after 3 days by curative manner; assay type: functional
[31] = test system: Botrytis cinerea; assay: Fungicidal activity against Botryotinia fuckeliana assessed as cucumber gray mold disease control at 2 ppm foliar application 24 hr after inoculation at 22 +/- 2 degC measured after 3 days by curative manner; assay type: functional
[32] = test system: Podosphaera fuliginea; assay: Fungicidal activity against Podosphaera fuliginea assessed as cucumber powdery mildew control under greenhouse at 125 ppm foliar application 24 hr after inoculation on upper surface of leaf at 23 +/- 2 degC by curative manner; assay type: functional
[33] = test system: Podosphaera fuliginea; assay: Fungicidal activity against Podosphaera fuliginea assessed as cucumber powdery mildew control under greenhouse at 31.3 ppm foliar application 24 hr after inoculation on upper surface of leaf at 23 +/- 2 degC by curative manner; assay type: functional
[34] = test system: Pseudoperonospora cubensis; assay: Fungicidal activity against Pseudoperonospora cubensis assessed as cucumber downy mildew disease control at 125 ppm foliar application 24 hr after inoculation on upper surface of leaf by curative manner; assay type: functional
[35] = test system: Pseudoperonospora cubensis; assay: Fungicidal activity against Pseudoperonospora cubensis assessed as cucumber downy mildew disease control at 31.3 ppm foliar application 24 hr after inoculation on upper surface of leaf by curative manner; assay type: functional
[36] = test system: Pseudoperonospora cubensis; assay: Fungicidal activity against Pseudoperonospora cubensis assessed as cucumber downy mildew disease control at 7.8 ppm foliar application 24 hr after inoculation on upper surface of leaf by curative manner; assay type: functional
[37] = test system: Pseudoperonospora cubensis; assay: Fungicidal activity against Pseudoperonospora cubensis assessed as cucumber downy mildew disease control at 2 ppm foliar application 24 hr after inoculation on upper surface of leaf by curative manner; assay type: functional
[38] = test system: Botrytis cinerea; assay: Fungicidal activity against Botryotinia fuckeliana assessed as cucumber gray mold disease control at 125 ppm foliar application 24 hr after inoculation at 22 +/- 2 degC measured after 3 days by curative manner; assay type: functional
[39] = test system: Thanatephorus cucumeris; assay: Fungicidal activity against Thanatephorus cucumeris assessed as rice sheath blight disease control at 2 ppm foliar application for 24 hr before inoculation at 26 +- 2 measured after 5 days by preventive manner; assay type: functional
[40] = test system: Pseudoperonospora cubensis; assay: Fungicidal activity against Pseudoperonospora cubensis assessed as cucumber downy mildew disease control at 2 ppm foliar application 24 hr before inoculation on upper surface of leaf by preventive manner; assay type: functional
[41] = test system: Botrytis cinerea; assay: Fungicidal activity against Botryotinia fuckeliana assessed as cucumber gray mold disease control at 2 ppm foliar application 24 hr before inoculation at 22 +/- 2 degC measured after 3 days by preventive manner; assay type: functional
[42] = test system: Podosphaera fuliginea; assay: Fungicidal activity against Podosphaera fuliginea assessed as cucumber powdery mildew control under greenhouse at 2 ppm foliar application 24 hr before inoculation on upper surface of leaf at 23 +/- 2 degC by preventive manner; assay type: functional

Compound | Activity [1] [%] | Activity [2] [%] | Activity [3] [%] | Activity [4] [%] | Activity [5] [%] | Activity [6] [%] | Activity [7] [%] | Activity [8] [%] | Activity [9] [%] | EC50 [10] [ppm] | EC50 [11] [ppm] | EC50 [12] [ppm] | EC50 [13] [ppm] | EC50 [14] [ppm] | EC50 [15] [ppm] | EC50 [16] [ppm] | Activity [17] [%] | Activity [18] [%] | Activity [19] [%] | EC50 [20] [ppm] | further results
CNC(=O)/C(=N\OC)c1ccccc1Oc1ccccc1 | 0 | 0 | 70 | 0 | 0 | 44 | 36 | 18 | 100 | 41.8 | 49.1 | 61.8 | 58.1 | > 64 | 1.7 | 41.1 | 100 | 40 | 50 | 16.2 | EC50 [21]: 11.9 ppm; EC50 [22]: 28.1 ppm
CNC(=O)/C(=N/OC)c1ccccc1Oc1ccccc1 [METOMINOSTROBIN] | 70 | 50 | 100 | 100 | 30 | 95 | 92 | 73 | 100 | 4.5 | 5.6 | 4.7 | 6.2 | 20.8 | 1.1 | 2.5 | 100 | 70 | 70 | 7.2 | Activity [23]: 50%; Activity [24]: 50%; Activity [25]: 50%; Activity [26]: 50%; Activity [27]: 50%; Activity [28]: 50%; EC50 [21]: 2 ppm; EC50 [22]: 2.8 ppm; Activity [29]: 50%; Activity [30]: 50%; Activity [31]: 50%; Activity [32]: 50%; Activity [33]: 50%; Activity [34]: 50%; Activity [35]: 50%; Activity [36]: 50%; Activity [37]: 50%; Activity [38]: 50%
CNC(=O)/C(=N/OC)c1ccccc1Oc1ccccc1[N+](=O)[O-] | <70 | <70 | <70 | <70 | <70 | <70 | <70 | <70 | <70 | – | – | – | – | – | – | – | <70 | <70 | <70 | – | Activity [39]: <70%; Activity [23]: <50%; Activity [24]: <50%; Activity [40]: <70%; Activity [41]: <70%; Activity [42]: <70%; Activity [29]: <50%; Activity [30]: <50%; Activity [31]: <50%; Activity [32]: <50%; Activity [33]: <50%; Activity [34]: <50%; Activity [35]: <50%; Activity [36]: <50%; Activity [37]: <50%; Activity [38]: <50%
